Test results: PubChem BioAssay (NCI)
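How tested: cells in 96-well plates exposed to compound for 48 hours at five concentrations. TGI is the concentration that stops growth completely.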

Key:
Test in all cases: NCI anticancer screen, dose series, 48 h
KM12 colon = test system: KM12 colon
UO-31 renal = test system: UO-31 renal
MCF7 breast = test system: MCF7 breast
U251 CNS = test system: U251 CNS
HT29 colon = test system: HT29 colon
OVCAR-5 ovarian = test system: OVCAR-5 ovarian
SK-MEL-5 melanoma = test system: SK-MEL-5 melanoma
SK-OV-3 ovarian = test system: SK-OV-3 ovarian
K-562 leukemia = test system: K-562 leukemia
NCI-H460 lung = test system: NCI-H460 lung
HCT-15 colon = test system: HCT-15 colon
RXF 393 renal = test system: RXF 393 renal
MALME-3M melanoma = test system: MALME-3M melanoma
MOLT-4 leukemia = test system: MOLT-4 leukemia
MDA-MB-231 breast = test system: MDA-MB-231 breast
HOP-62 NSCLC = test system: HOP-62 NSCLC
SNB-75 CNS = test system: SNB-75 CNS
A549 NSCLC = test system: A549 NSCLC
CAKI-1 renal = test system: CAKI-1 renal
M14 melanoma = test system: M14 melanoma
MDA-MB-435 = test system: MDA-MB-435
OVCAR-8 ovarian = test system: OVCAR-8 ovarian
SF-539 CNS = test system: SF-539 CNS
CCRF-CEM leukemia = test system: CCRF-CEM leukemia
PC-3 prostate = test system: PC-3 prostate
COLO 205 colon = test system: COLO 205 colon
SN12C renal = test system: SN12C renal
SF-295 CNS = test system: SF-295 CNS
786-0 renal = test system: 786-0 renal
SK-MEL-28 melanoma = test system: SK-MEL-28 melanoma
HCC-2998 colon = test system: HCC-2998 colon
HCT-116 colon = test system: HCT-116 colon
RPMI-8226 leukemia = test system: RPMI-8226 leukemia
T-47D breast = test system: T-47D breast
TK-10 renal = test system: TK-10 renal
DU-145 prostate = test system: DU-145 prostate
ACHN renal = test system: ACHN renal
A498 renal = test system: A498 renal
SNB-19 CNS = test system: SNB-19 CNS
SF-268 CNS = test system: SF-268 CNS
NCI-H226 lung = test system: NCI-H226 lung
NCI/ADR-RES ovarian = test system: NCI/ADR-RES ovarian
HL-60(TB) leukemia = test system: HL-60(TB) leukemia
LOX IMVI melanoma = test system: LOX IMVI melanoma
SK-MEL-2 melanoma = test system: SK-MEL-2 melanoma
MDA-N = test system: MDA-N
UACC-62 melanoma = test system: UACC-62 melanoma
NCI-H522 lung = test system: NCI-H522 lung
OVCAR-3 ovarian = test system: OVCAR-3 ovarian
NCI-H23 lung = test system: NCI-H23 lung
HS 578T breast = test system: HS 578T breast
UACC-257 melanoma = test system: UACC-257 melanoma
HOP-92 NSCLC = test system: HOP-92 NSCLC
SR leukemia = test system: SR leukemia
IGROV1 ovarian = test system: IGROV1 ovarian
SW-620 colon = test system: SW-620 colon
EKVX NSCLC = test system: EKVX NSCLC
OVCAR-4 ovarian = test system: OVCAR-4 ovarian

SMILES: Oc1ccc[n+](Cc2ccccc2)c1
- TGI (KM12 colon): > 100 µM
- TGI (UO-31 renal): > 100 µM
- TGI (MCF7 breast): > 100 µM
- TGI (U251 CNS): > 100 µM
- TGI (HT29 colon): > 100 µM
- TGI (OVCAR-5 ovarian): > 100 µM
- TGI (SK-MEL-5 melanoma): > 100000 nM
- TGI (SK-OV-3 ovarian): > 100 µM
- TGI (K-562 leukemia): > 100 µM
- TGI (NCI-H460 lung): > 100 µM
- TGI (HCT-15 colon): > 100 µM
- TGI (RXF 393 renal): > 100 µM
- TGI (MALME-3M melanoma): > 100 µM
- TGI (MOLT-4 leukemia): > 100 µM
- TGI (MDA-MB-231 breast): > 100 µM
- TGI (HOP-62 NSCLC): > 100 µM
- TGI (SNB-75 CNS): > 100000 nM
- TGI (A549 NSCLC): > 100 µM
- TGI (CAKI-1 renal): > 100 µM
- TGI (M14 melanoma): > 100 µM
- TGI (MDA-MB-435): > 100 µM
- TGI (OVCAR-8 ovarian): > 100 µM
- TGI (SF-539 CNS): > 100 µM
- TGI (CCRF-CEM leukemia): > 100000 nM
- TGI (PC-3 prostate): > 100 µM
- TGI (COLO 205 colon): > 100000 nM
- TGI (SN12C renal): > 100 µM
- TGI (SF-295 CNS): > 100 µM
- TGI (786-0 renal): > 100 µM
- TGI (SK-MEL-28 melanoma): > 100 µM
- TGI (HCC-2998 colon): > 100 µM
- TGI (HCT-116 colon): > 100 µM
- TGI (RPMI-8226 leukemia): > 100 µM
- TGI (T-47D breast): > 100 µM
- TGI (TK-10 renal): > 100 µM
- TGI (DU-145 prostate): > 100 µM
- TGI (ACHN renal): > 100 µM
- TGI (A498 renal): > 100 µM
- TGI (SNB-19 CNS): > 100 µM
- TGI (SF-268 CNS): > 100 µM
- TGI (NCI-H226 lung): > 100 µM
- TGI (NCI/ADR-RES ovarian): > 100 µM
- TGI (HL-60(TB) leukemia): > 100000 nM
- TGI (LOX IMVI melanoma): > 100 µM
- TGI (SK-MEL-2 melanoma): > 100000 nM
- TGI (MDA-N): > 100 µM
- TGI (UACC-62 melanoma): > 100 µM
- TGI (NCI-H522 lung): > 100 µM
- TGI (OVCAR-3 ovarian): > 100 µM
- TGI (NCI-H23 lung): > 100 µM
- TGI (HS 578T breast): > 100 µM
- TGI (UACC-257 melanoma): > 100 µM

SMILES: CC[C@H](C)[C@H]1NC(=O)[C@@H](NC(=O)[C@@H](CC(C)C)N(C)C(=O)C2CCCN2C(=O)[C@H](C)O)[C@@H](C)OC(=O)[C@@H]2Cc3ccccc3CN2C(=O)[C@@H]2CCCN2C(=O)[C@H](CC(C)C)NC(=O)[C@@H](C)C(=O)[C@H](C(C)C)OC(=O)C[C@@H]1O (stereo not given in full)
- TGI (KM12 colon): 5.13 µM
- TGI (MCF7 breast): 12.8 µM
- TGI (HT29 colon): 10.7 µM
- TGI (OVCAR-5 ovarian): 12.7 µM
- TGI (HOP-92 NSCLC): 28.8 µM
- TGI (SK-MEL-5 melanoma): 2860 nM
- TGI (SK-OV-3 ovarian): > 42 µM
- TGI (K-562 leukemia): > 41.2 µM
- TGI (NCI-H460 lung): 5.09 µM
- TGI (HCT-15 colon): > 100 µM
- TGI (SR leukemia): 1080 nM
- TGI (RXF 393 renal): 6.48 µM
- TGI (MALME-3M melanoma): 5.16 µM
- TGI (MOLT-4 leukemia): 5 µM
- TGI (MDA-MB-231 breast): 10.3 µM
- TGI (IGROV1 ovarian): > 73.7 µM
- TGI (HOP-62 NSCLC): 12 µM
- TGI (SNB-75 CNS): 1940 nM
- TGI (A549 NSCLC): 21.3 µM
- TGI (CAKI-1 renal): > 50 µM
- TGI (M14 melanoma): 13.3 µM
- TGI (MDA-MB-435): 8.1 µM
- TGI (OVCAR-8 ovarian): > 54.8 µM
- TGI (SF-539 CNS): 8.42 µM
- TGI (CCRF-CEM leukemia): 1660 nM
- TGI (COLO 205 colon): 2610 nM
- TGI (SN12C renal): 5.56 µM
- TGI (SF-295 CNS): > 28.6 µM
- TGI (786-0 renal): 11.1 µM
- TGI (SK-MEL-28 melanoma): 23.1 µM
- TGI (HCC-2998 colon): 3.26 µM
- TGI (HCT-116 colon): 5.08 µM
- TGI (RPMI-8226 leukemia): 10.4 µM
- TGI (T-47D breast): > 100 µM
- TGI (TK-10 renal): > 70.1 µM
- TGI (DU-145 prostate): 6.31 µM
- TGI (ACHN renal): 15.5 µM
- TGI (A498 renal): 5.96 µM
- TGI (SF-268 CNS): 6.34 µM
- TGI (NCI-H226 lung): 6.4 µM
- TGI (NCI/ADR-RES ovarian): > 100 µM
- TGI (SW-620 colon): > 42.6 µM
- TGI (HL-60(TB) leukemia): 433 nM
- TGI (LOX IMVI melanoma): 9.11 µM
- TGI (SK-MEL-2 melanoma): 1550 nM
- TGI (MDA-N): 12.5 µM
- TGI (EKVX NSCLC): > 55 µM
- TGI (OVCAR-4 ovarian): > 25 µM
- TGI (UACC-62 melanoma): 4.47 µM
- TGI (NCI-H522 lung): > 49.3 µM
- TGI (OVCAR-3 ovarian): 6.68 µM
- TGI (HS 578T breast): > 38.4 µM
- TGI (UACC-257 melanoma): 6.11 µM
